Assay results from patent US20260365653A1, “IRREVERSIBLE MUTEGFR INHIBITORS” (Bayer Aktiengesellschaft, priority 2022, published 2026).

Tests used:
[1] = molecular target: T1, mutEGFR (D770_N771insSVD) (Homo sapiens, UniProt P00533, DUP768-770); assay: Exon20-Mutant-EGFR (D770_N771insSVD) kinase assay (TR-FRET); type: biochemical; conditions: mutEGFR (D770_N771insSVD) kinase assay IC50, Table 2a; D770_N771insSVD; 2 mM ATP
T1 construct: GST-EGFR #3 (SVD between D770 and N771); made in house; host or cells: Sf9 insect cells (baculovirus)
T1 sequence (P00533 with tags, fused parts or gaps DUP768-770): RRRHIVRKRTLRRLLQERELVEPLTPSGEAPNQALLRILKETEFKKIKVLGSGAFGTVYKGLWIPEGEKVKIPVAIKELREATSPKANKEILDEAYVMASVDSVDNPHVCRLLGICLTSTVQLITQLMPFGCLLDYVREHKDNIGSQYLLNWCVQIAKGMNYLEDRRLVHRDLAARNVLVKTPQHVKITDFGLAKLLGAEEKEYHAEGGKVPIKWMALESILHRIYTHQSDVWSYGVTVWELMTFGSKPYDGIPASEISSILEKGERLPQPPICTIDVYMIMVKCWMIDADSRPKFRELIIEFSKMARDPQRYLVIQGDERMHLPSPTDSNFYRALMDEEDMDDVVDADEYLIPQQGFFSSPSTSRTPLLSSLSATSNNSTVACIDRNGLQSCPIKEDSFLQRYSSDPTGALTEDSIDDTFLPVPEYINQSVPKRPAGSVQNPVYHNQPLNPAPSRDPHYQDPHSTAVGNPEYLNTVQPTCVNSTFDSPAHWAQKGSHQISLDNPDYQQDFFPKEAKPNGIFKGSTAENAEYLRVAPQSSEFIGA

[2] = molecular target: T2, mutEGFR (D770_N771insNPG, T790) (Homo sapiens, UniProt P00533, INS770NPG/T790M); assay: mutEGFR (D770_N771insNPG, T790) kinase assay; type: biochemical; conditions: Table 2a, D770_N771insNPG
T2 construct: exact insNPG construct not described; in-house EGFR proteins were N-terminal GST fusions from baculovirus/insect cells (borders R669-A1210 given only for WT, insSVD, insASV)
T2 sequence (P00533 with tags, fused parts or gaps INS770NPG/T790M limits assumed): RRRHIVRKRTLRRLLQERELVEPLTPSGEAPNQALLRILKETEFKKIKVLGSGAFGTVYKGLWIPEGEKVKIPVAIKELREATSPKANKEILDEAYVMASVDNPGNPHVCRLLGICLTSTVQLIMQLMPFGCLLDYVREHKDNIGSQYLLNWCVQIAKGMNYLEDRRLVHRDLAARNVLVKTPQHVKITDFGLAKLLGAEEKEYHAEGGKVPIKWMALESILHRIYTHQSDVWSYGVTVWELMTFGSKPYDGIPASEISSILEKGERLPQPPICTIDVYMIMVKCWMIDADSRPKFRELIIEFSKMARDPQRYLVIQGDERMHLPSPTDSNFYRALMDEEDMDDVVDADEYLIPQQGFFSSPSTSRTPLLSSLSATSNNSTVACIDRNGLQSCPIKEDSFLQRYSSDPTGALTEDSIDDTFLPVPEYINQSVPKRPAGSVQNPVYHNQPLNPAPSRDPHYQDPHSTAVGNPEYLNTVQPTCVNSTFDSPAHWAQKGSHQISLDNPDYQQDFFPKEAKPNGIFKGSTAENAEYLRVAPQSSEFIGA
Text: The different EGFR proteins used in the biochemical kinase activity inhibition assays were generated inhouse by expression in insect cells using Baculo Virus system and subsequent purification as described in the following paragraphs.
The cDNAs encoding the various protein sequences from human EGFR human (P00533) were optimized for expression in eukaryotic cells and synthesized by the GeneArt Technology at Life Technologies.

BA/F3 (insSVD) cells = assay: Ba/F3-EGFR-insSVD cell survival assay (Cell Titer-Glo); type: cell-based; conditions: Mus musculus, BaF3, 48 h, Table 3a, cell survival, Cell Titer-Glo, with 10 ng/ml EGF, without IL-3
Outline: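 Ba/F3 cells stably expressing retroviral EGFR-insSVD or insSVD T790M, grown without IL-3 on 10 ng/ml EGF, 4000 cells/well. Compound pinned in, 48 h at 37° C. Viability by CellTiter-Glo luminescence.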

Compound | IC50 [1] | IC50 [2] | IC50 (BA/F3 (insSVD) cells)
CN(C)C/C=C/C(=O)N1CCn2nc(-c3ccccc3F)c(-c3ccncc3)c2C1 [Example 153, (2E)-4-(dimethylamino)-1-[2-(2-fluorophenyl)-3-(pyridin-4-yl)-6,7-dihydropyrazolo[1,5-a]pyrazin-5(4H)-yl]but-2-en-1-one] | 0.00229 µM | 0.00991 µM | 0.557 µM
CN(C)C/C=C/C(=O)N1CCn2nc(-c3ccccc3Cl)c(-c3ccncc3)c2C1 [Example 154, (2E)-1-[2-(2-chlorophenyl)-3-(pyridin-4-yl)-6,7-dihydropyrazolo[1,5-a]pyrazin-5(4H)-yl]-4-(dimethylamino)but-2-en-1-one] | 0.00348 µM | 0.0275 µM | 2.85 µM
COc1cccc(-c2nn3c(c2-c2ccncc2)CN(C(=O)/C=C/CN(C)C)CC3)c1 [Example 155, (2E)-4-(dimethylamino)-1-[2-(3-methoxyphenyl)-3-(pyridin-4-yl)-6,7-dihydropyrazolo[1,5-a]pyrazin-5(4H)-yl]but-2-en-1-one] | 0.00643 µM | 0.00524 µM | 1.05 µM
Cc1ccc(-c2nn3c(c2-c2ccncc2)CN(C(=O)/C=C/CN(C)C)CC3)cc1 [Example 156, (2E)-4-(dimethylamino)-1-[2-(4-methylphenyl)-3-(pyridin-4-yl)-6,7-dihydropyrazolo[1,5-a]pyrazin-5(4H)-yl]but-2-en-1-one] | 0.00145 µM | 0.00464 µM | 0.0982 µM
Cc1cccc(-c2nn3c(c2-c2ccncc2)CN(C(=O)/C=C/CN(C)C)CC3)c1 [Example 157, (2E)-4-(dimethylamino)-1-[2-(3-methylphenyl)-3-(pyridin-4-yl)-6,7-dihydropyrazolo[1,5-a]pyrazin-5(4H)-yl]but-2-en-1-one] | 0.001 µM | 0.00177 µM | 0.117 µM
CCc1ccc(-c2nn3c(c2-c2ccncc2)CN(C(=O)/C=C/CN(C)C)CC3)cc1 [Example 158, (2E)-4-(dimethylamino)-1-[2-(4-ethylphenyl)-3-(pyridin-4-yl)-6,7-dihydropyrazolo[1,5-a]pyrazin-5(4H)-yl]but-2-en-1-one] | 0.00501 µM | 0.0164 µM | 0.482 µM
CN(C)C/C=C/C(=O)N1CCn2nc(-c3cccc(C#N)c3)c(-c3ccncc3)c2C1 [Example 159, 3-{5-[(2E)-4-(dimethylamino)but-2-enoyl]-3-(pyridin-4-yl)-4,5,6,7-tetrahydropyrazolo[1,5-a]pyrazin-2-yl}benzonitrile] | 0.0831 µM | 0.0387 µM | 0.764 µM
COc1ccc(-c2nn3c(c2-c2ccncc2)CN(C(=O)/C=C/CN(C)C)CC3)c(F)c1 [Example 160, (2E)-4-(dimethylamino)-1-[2-(2-fluoro-4-methoxyphenyl)-3-(pyridin-4-yl)-6,7-dihydropyrazolo[1,5-a]pyrazin-5(4H)-yl]but-2-en-1-one] | 0.00148 µM | 0.00658 µM | 0.973 µM
CN(C)C/C=C/C(=O)N1CCn2nc(-c3ccc(SC(F)(F)F)cc3)c(-c3ccncc3)c2C1 [Example 161, (2E)-4-(dimethylamino)-1-[3-(pyridin-4-yl)-2-{4-[(trifluoromethyl)sulfanyl]phenyl}-6,7-dihydropyrazolo[1,5-a]pyrazin-5(4H)-yl]but-2-en-1-one] | 0.0929 µM | 0.629 µM | 1.99 µM
O=C(/C=C/CN1CCC1)N1CCn2nc(-c3ccc(Cl)cc3)c(-c3ccncc3)c2C1 [Example 162, (2E)-4-(azetidin-1-yl)-1-[2-(4-chlorophenyl)-3-(pyridin-4-yl)-6,7-dihydropyrazolo[1,5-a]pyrazin-5(4H)-yl]but-2-en-1-one] | 0.000507 µM | 0.00232 µM | 0.0438 µM
O=C(/C=C/CN1CCCCC1)N1CCn2nc(-c3ccc(Cl)cc3)c(-c3ccncc3)c2C1 [Example 163, (2E)-1-[2-(4-chlorophenyl)-3-(pyridin-4-yl)-6,7-dihydropyrazolo[1,5-a]pyrazin-5(4H)-yl]-4-(piperidin-1-yl) but-2-en-1-one] | 0.00016 µM | 0.000619 µM | 0.0474 µM
CN1CCN(C/C=C/C(=O)N2CCn3nc(-c4ccc(Cl)cc4)c(-c4ccncc4)c3C2)CC1 [Example 164, (2E)-1-[2-(4-chlorophenyl)-3-(pyridin-4-yl)-6,7-dihydropyrazolo[1,5-a]pyrazin-5(4H)-yl]-4-(4-methylpiperazin-1-yl) but-2-en-1-one] | 0.00299 µM | 0.00937 µM | 0.155 µM
O=C(/C=C/CN1CCOCC1)N1CCn2nc(-c3ccc(Cl)cc3)c(-c3ccncc3)c2C1 [Example 165, (E)-1-(2-(4-chlorophenyl)-3-(pyridin-4-yl)-6,7-dihydropyrazolo[1,5-a]pyrazin-5(4H)-yl)-4-morpholinobut-2-en-1-one] | 0.000631 µM | 0.00243 µM | 0.107 µM
CC(C)N(C)C/C=C/C(=O)N1CCn2nc(-c3ccc(Cl)cc3)c(-c3ccncc3)c2C1 [Example 166, (2E)-1-[2-(4-chlorophenyl)-3-(pyridin-4-yl)-6,7-dihydropyrazolo[1,5-a]pyrazin-5(4H)-yl]-4-[isopropyl(methyl)amino]but-2-en-1-one] | 0.000169 µM | 0.000338 µM | 0.0781 µM
CC(C)(C)NC/C=C/C(=O)N1CCn2nc(-c3ccc(Cl)cc3)c(-c3ccncc3)c2C1 [Example 167, (2E)-4-(tert-butylamino)-1-[2-(4-chlorophenyl)-3-(pyridin-4-yl)-6,7-dihydropyrazolo[1,5-a]pyrazin-5(4H)-yl]but-2-en-1-one] | 0.000256 µM | 0.00102 µM | 0.0352 µM
COC1CCN(C/C=C/C(=O)N2CCn3nc(-c4ccc(Cl)cc4)c(-c4ccncc4)c3C2)CC1 [Example 168, (2E)-1-[2-(4-chlorophenyl)-3-(pyridin-4-yl)-6,7-dihydropyrazolo[1,5-a]pyrazin-5(4H)-yl]-4-(4-methoxypiperidin-1-yl) but-2-en-1-one] | 0.000245 µM | 0.000692 µM | 0.0637 µM
COCCN(C)C/C=C/C(=O)N1CCn2nc(-c3ccc(Cl)cc3)c(-c3ccncc3)c2C1 [Example 169, (2E)-1-[2-(4-chlorophenyl)-3-(pyridin-4-yl)-6,7-dihydropyrazolo[1,5-a]pyrazin-5(4H)-yl]-4-[(2-methoxyethyl)(methyl)amino]but-2-en-1-one] | 0.00018 µM | 0.000385 µM | 0.0669 µM
O=C(/C=C/CN1CCCC1)N1CCn2nc(-c3ccc(Cl)cc3)c(-c3ccncc3)c2C1 [Example 171, (2E)-1-[2-(4-chlorophenyl)-3-(pyridin-4-yl)-6,7-dihydropyrazolo[1,5-a]pyrazin-5(4H)-yl]-4-(pyrrolidin-1-yl)but-2-en-1-one] | 0.000136 µM | 0.000406 µM | 0.0337 µM
O=C(/C=C/CN1CC(F)C1)N1CCn2nc(-c3ccc(Cl)cc3)c(-c3ccncc3)c2C1 [Example 172, (2E)-1-[2-(4-chlorophenyl)-3-(pyridin-4-yl)-6,7-dihydropyrazolo[1,5-a]pyrazin-5(4H)-yl]-4-(3-fluoroazetidin-1-yl) but-2-en-1-one] | 0.000203 µM | 0.00121 µM | 0.0432 µM
C=CC(=O)N1CCn2nc(-c3ccc(F)cc3)c(-c3ccnc4[nH]cc(C)c34)c2C1 [Example 173, 1-[2-(4-fluorophenyl)-3-(3-methyl-1H-pyrrolo[2,3-b]pyridin-4-yl)-6,7-dihydropyrazolo[1,5-a]pyrazin-5(4H)-yl]prop-2-en-1-one] | 0.157 µM | 0.0255 µM | 0.0628 µM
C=CC(=O)N1CCn2nc(-c3ccc(C(F)(F)F)cc3F)c(-c3ccnc4[nH]cc(C)c34)c2C1 [Example 174, 1-(2-(2-fluoro-4-(trifluoromethyl)phenyl)-3-(3-methyl-1H-pyrrolo[2,3-b]pyridin-4-yl)-6,7-dihydropyrazolo[1,5-a]pyrazin-5(4H)-yl) prop-2-en-1-one] | 0.176 µM | 2.13 µM | 0.16 µM
C=CC(=O)N1CCn2nc(-c3ccc(Cl)cc3)c(-c3ccnc4[nH]cc(C)c34)c2C1 [Example 175, 1-[2-(4-chlorophenyl)-3-(3-methyl-1H-pyrrolo[2,3-b]pyridin-4-yl)-6,7-dihydropyrazolo[1,5-a]pyrazin-5(4H)-yl]prop-2-en-1-one] | 0.0976 µM | 0.0804 µM | 0.0635 µM
C=CC(=O)N1CCn2nc(-c3cccc(Cl)c3)c(-c3ccnc4[nH]cc(C)c34)c2C1 [Example 177, 1-[2-(3-chlorophenyl)-3-(3-methyl-1H-pyrrolo[2,3-b]pyridin-4-yl)-6,7-dihydropyrazolo[1,5-a]pyrazin-5(4H)-yl]prop-2-en-1-one] | 0.0432 µM | 0.0178 µM | 0.0587 µM
C=CC(=O)N1CCn2nc(-c3ccccc3Cl)c(-c3ccnc4[nH]cc(C)c34)c2C1 [Example 179, 1-[2-(2-chlorophenyl)-3-(3-methyl-1H-pyrrolo[2,3-b]pyridin-4-yl)-6,7-dihydropyrazolo[1,5-a]pyrazin-5(4H)-yl]prop-2-en-1-one] | 0.438 µM | 0.36 µM | 0.265 µM
